One test has as its system AMARE. Nature of the test: greenhouse post-emergence herbicidal activity against AMARE. The test is classed as in vivo, Amaranthus retroflexus. To be noted: scale 0 to 100. From the text: (§1) The seeds of the test plants were sown separately for each species. For the post-emergence treatment, the test plants were first grown to a height of 3 to 15 cm, depending on the plant habit, and then treated with the active compounds which had been suspended or emulsified in water. For this purpose, the test plants were either sown directly and grown in the same containers, or they were first grown separately as seedlings and transplanted into the test containers a few days prior to treatment. Depending on the species, the plants were kept at 10-25° C. or 20-35° C. The test period extended over 2 to 4 weeks. During this time, the plants were tended, and their response to the individual treatments was evaluated. Evaluation was carried out using a scale from 0 to 100. 100 means no emergence of the plants, or complete destruction of at least the aerial moieties, and 0 means no damage, or normal course of growth. A good herbicidal activity is given at values of at least 70 and a very good herbicidal activity is given at values of at least 85. The plants used in the greenhouse experiments belonged to the following species: [table]

The subject of a further test is CHEAL. Nature of the test: greenhouse post-emergence herbicidal activity against CHEAL. The test is classed as in vivo, Chenopodium album. To be noted: scale 0 to 100.
Source text: as §1

A further test has as its system ABUTH. Nature of the test: greenhouse pre-emergence herbicidal activity against ABUTH. The class given is in vivo, Abutilon theophrasti. To be noted: application rate 3.0 kg/ha, scale 0 to 100. The text has this:
(§2) The seeds of the test plants were sown separately for each species. For the pre-emergence treatment, the active compounds, which had been suspended or emulsified in water, were applied directly after sowing by means of finely distributing nozzles. The containers were irrigated gently to promote germination and growth and subsequently covered with transparent plastic hoods until the plants had rooted. This cover caused uniform germination of the test plants, unless this has been impaired by the active compounds. Depending on the species, the plants were kept at 10-25° C. or 20-35° C. The test period extended over 2 to 4 weeks. During this time, the plants were tended, and their response to the individual treatments was evaluated. Evaluation was carried out using a scale from 0 to 100. 100 means no emergence of the plants, or complete destruction of at least the aerial moieties, and 0 means no damage, or normal course of growth. A good herbicidal activity is given at values of at least 70 and a very good herbicidal activity is given at values of at least 85. The plants used in the greenhouse experiments belonged to the following species: [table]

In a further test the test system is SETIT. The experiment in a line: greenhouse pre-emergence herbicidal activity against SETIT. The test is classed as in vivo, Setaria italica. To be noted: application rate 3.0 kg/ha, scale 0 to 100.
Source text: as §2

For a further test, the system named is ALOMY. Nature of the test: greenhouse post-emergence herbicidal activity against ALOMY. The class given is in vivo, Alopecurus myosuroides. To be noted: application rate 3.0 kg/ha, scale 0 to 100.
Source text: as §1

The next test relates to GALAP. Nature of the test: greenhouse post-emergence herbicidal activity against GALAP. The test is classed as in vivo, Galium aparine. To be noted: application rate 0.25 kg/ha, scale 0 to 100.
Source text: as §1

A further test concerns SETFA. Nature of the test: greenhouse post-emergence herbicidal activity against SETFA. The class given is in vivo, Setaria faberi. The following applies: application rate 3.0 kg/ha, scale 0 to 100.
Source text: as §1

Consider `COC(=O)C(=C(OC(C)=O)c1ncccc1OC(C)=O)c1ccccc1C(F)(F)F` [I-2, methyl 3-acetoxy-3-(3-acetoxypyridin-2-yl)-2-(2-trifluoromethylphenyl)acrylate], for which the “herbicidal activity against AMARE” value in the test on AMARE (application rate 0.5 kg/ha) is listed as “Very good”. For the same compound, the “herbicidal activity against CHEAL” value in the test with CHEAL (application rate 0.5 kg/ha) is reported as “Very good”.
Turning to `COC(=O)C(C(=O)c1ncccc1O)c1ccccc1C(F)(F)F` (stereo not drawn) [I-1, methyl 3-(3-hydroxypyridin-2-yl)-3-oxo-2-(2-trifluoromethylphenyl)propionate], in the test with ABUTH, the “herbicidal activity against ABUTH” value is recorded as “good (A good herbicidal activity is given at values of at least 70)”. Also, the “herbicidal activity against SETIT” value with SETIT is “very good (a very good herbicidal activity is given at values of at least 85)”. In the test on ALOMY, the “herbicidal activity against ALOMY” value was “good (A good herbicidal activity is given at values of at least 70)”. For the same compound, in the test with AMARE (application rate 0.25 kg/ha), the “herbicidal activity against AMARE” value is given as “Very good”. Also, in the test with CHEAL (application rate 0.25 kg/ha), the “herbicidal activity against CHEAL” value is “Very good”. Also, the “herbicidal activity against GALAP” value with GALAP is on record as “very good (a very good herbicidal activity is given at values of at least 85)”. For the same compound, the “herbicidal activity against SETFA” value with SETFA is “very good (a very good herbicidal activity is given at values of at least 85)”.

The values above are taken from patent publication US20110251063A1, “HETEROCYCLIC DIKETONE DERIVATIVES WITH HERBICIDAL ACTION” (priority 2008, published 2011).
